Measured values taken from PMC10323144, “Garbage in, garbage out: how reliable training data improved a virtual screening approach against SARS-CoV-2 MPro” (Frontiers in Pharmacology, 2023).
Square brackets hold non-standard residues; d marks the D form. Peptide text beside a SMILES is read from it. * marks the point of attachment. ξ: configuration not given here. Boc = CC(C)(C)OC(=O)*; ξV = CC(C)C(N)C(=O)O; GABA = NCCCC(=O)O; ξA = CC(N)C(=O)O

Columns and labels:
SARS-CoV-2 MPro = SARS-CoV-2 MPro (Severe acute respiratory syndrome coronavirus 2, UniProt P0DTD1); assay: MPro activity assay (de-quenching of Edans fluorescence on cleavage of a Dabcyl/Edans peptide); assay type: biochemical; conditions: for IC50: 60 min pre-incubation, 5 μM substrate; for activity at 25 µM: read-out: MPro activity (%); for activity against MPro (in words): 25 μM where stated
MPro = conditions: compiled from peer-reviewed sources (287 compounds) ref the 18 original articles; cited from earlier work

Row | Compound | Class (MPro activity class) (MPro) | further results
1 | COc1ccc(C(=O)C2=C(O)C(=O)N(c3nc4ccc(Cl)cc4s3)C2c2ccc(F)cc2)cc1OC (centres unmarked) [1a] | – | IC50 (SARS-CoV-2 MPro): < 25 µM; activity at 25 µM (SARS-CoV-2 MPro): 34.8 ± 3.4%
2 | [O-][n+]1onc2cc(Cl)cc(Cl)c21 [1d] | – | activity at 25 µM (SARS-CoV-2 MPro): 89.3 ± 1.9%
3 | COC(=O)[C@@H](Cc1ccccc1)NC(=O)C(C)NC(=O)[C@@H](NC(=O)C(NC(=O)CCCNC(=O)OC(C)(C)C)C(C)C)C(C)C (some centres unmarked) [2a] ({Boc-GABA}-[ξV]V[ξA][dF]-OMe) | – | IC50 (SARS-CoV-2 MPro): 32.1 ± 1.4 µM
4 | CC(C)(C)OC(=O)NC1CCCN(CC(=O)NC(Cc2ccccc2)C(=O)Nc2nc3cc(Sc4ccccc4)ccc3[nH]2)C1=O (centres unmarked) [3a] | – | activity at 25 µM (SARS-CoV-2 MPro): 64.9 ± 11.6%
5 | Cc1c(C(=O)NCc2ccccc2)[n+]([O-])c2ccccc2[n+]1[O-] [4a] | – | activity at 25 µM (SARS-CoV-2 MPro): 59.4 ± 3.6%
6 | Oc1cc(O)c2c(c1)O[C@H](c1ccc(O)c(O)c1)[C@H](O)C2 [4b, epicatechin] | – | % activity MPro at 10 μM or 25 μM (SARS-CoV-2 MPro; 10 μM or 25 μM compound): 88.7 ± 0.6%; activity against MPro (in words) (SARS-CoV-2 MPro): negligible activity
7 | O=S(=O)(O)c1ccc(/C=N/N=c2\scc(-c3cs/c(=N\N=C\c4ccc(S(=O)(=O)O)o4)n3-c3ccccc3)n2-c2ccccc2)o1 [5a] | – | activity at 25 µM (SARS-CoV-2 MPro): 65.6 ± 10.9%
8 | O=C(O[C@@H]1Cc2c(O)cc(O)cc2O[C@@H]1c1ccc(O)c(O)c1)c1cc(O)c(O)c(O)c1 [5b, epicatechin gallate] | – | activity against MPro (in words) (SARS-CoV-2 MPro): full inhibition; activity at 25 µM (SARS-CoV-2 MPro): 0%
9 | CC(=O)OC[C@H]1O[C@@H](Sc2ccccc2)[C@H](OC(C)=O)[C@@H](OC(C)=O)C1OC(C)=O (some centres unmarked) [6a] | – | activity at 25 µM (SARS-CoV-2 MPro): 60.9 ± 1.5%
10 | COc1ccc2no[n+]([O-])c2c1 [6d] | – | activity at 25 µM (SARS-CoV-2 MPro): 85.8 ± 3.5%
11 | O=C(O)c1ccc2no[n+]([O-])c2c1 [7d] | – | activity at 25 µM (SARS-CoV-2 MPro): 66 ± 4%
12 | N#Cc1ccccc1-c1cc(-c2cccc(Cl)c2)c(=O)n(-c2cccnc2)c1 [compound 2] | 1 (Compounds with IC50 < 10 µM or with a percentage of enzyme inhibition >50% at 10 µM were labelled as ACTIVE) | –
13 | N#Cc1ccccc1-c1cc(-c2cc(Cl)cc(Cl)c2)c(=O)n(-c2cccnc2)c1 [compound 4] | 1 (Compounds with IC50 < 10 µM or with a percentage of enzyme inhibition >50% at 10 µM were labelled as ACTIVE) | –
14 | COCCOc1cc(Cl)cc(-c2cc(-c3ccccc3C#N)cn(-c3cccnc3)c2=O)c1 [compound 6] | 1 (Compounds with IC50 < 10 µM or with a percentage of enzyme inhibition >50% at 10 µM were labelled as ACTIVE) | –
15 | N#Cc1ccccc1-c1cc(-c2cc(Cl)cc(OCc3ccccc3)c2)c(=O)n(-c2cccnc2)c1 [compound 7] | 1 (Compounds with IC50 < 10 µM or with a percentage of enzyme inhibition >50% at 10 µM were labelled as ACTIVE) | –
16 | N#Cc1ccccc1-c1cc(-c2cc(Cl)cc(OCCc3ccccc3)c2)c(=O)n(-c2cccnc2)c1 [compound 8] | 1 (Compounds with IC50 < 10 µM or with a percentage of enzyme inhibition >50% at 10 µM were labelled as ACTIVE) | –
17 | CCCOc1cc(Cl)cc(-c2cc(-c3ccccc3C#N)cn(-c3cncnc3)c2=O)c1 [compound 9] | 1 (Compounds with IC50 < 10 µM or with a percentage of enzyme inhibition >50% at 10 µM were labelled as ACTIVE) | –
18 | COc1cc(Cl)cc(-c2cc(-c3c[nH]c(=O)[nH]c3=O)cn(-c3cccnc3)c2=O)c1 [compound 10] | 1 (Compounds with IC50 < 10 µM or with a percentage of enzyme inhibition >50% at 10 µM were labelled as ACTIVE) | –
19 | CCCOc1cc(Cl)cc(-c2cc(-c3c[nH]c(=O)[nH]c3=O)cn(-c3cccnc3)c2=O)c1 [compound 11] | 1 (Compounds with IC50 < 10 µM or with a percentage of enzyme inhibition >50% at 10 µM were labelled as ACTIVE) | –
20 | O=C(C=Cc1ccccc1)NC(CC1CCCCC1)C(=O)NC(CC1CCNC1=O)C(=O)C(=O)NCc1ccccc1 (centres unmarked) [compound 11r] | 1 (Compounds with IC50 < 10 µM or with a percentage of enzyme inhibition >50% at 10 µM were labelled as ACTIVE) | –
21 | CCCCOc1cc(Cl)cc(-c2cc(-c3c[nH]c(=O)[nH]c3=O)cn(-c3cccnc3)c2=O)c1 [compound 12] | 1 (Compounds with IC50 < 10 µM or with a percentage of enzyme inhibition >50% at 10 µM were labelled as ACTIVE) | –
22 | CCCCCOc1cc(Cl)cc(-c2cc(-c3c[nH]c(=O)[nH]c3=O)cn(-c3cccnc3)c2=O)c1 [compound 13] | 1 (Compounds with IC50 < 10 µM or with a percentage of enzyme inhibition >50% at 10 µM were labelled as ACTIVE) | –

Row | Compound | Class (MPro activity class) (MPro) | further results
23 | CC(C)(C)OC(=O)Nc1cccn(C(CC2CC2)C(=O)NC(CC2CCNC2=O)C(=O)C(=O)NC2CC2)c1=O (centres unmarked) [compound 13b] | 1 (Compounds with IC50 < 10 µM or with a percentage of enzyme inhibition >50% at 10 µM were labelled as ACTIVE) | –
24 | O=c1[nH]cc(-c2cc(-c3cc(Cl)cc(OCc4ccccc4)c3)c(=O)n(-c3cccnc3)c2)c(=O)[nH]1 [compound 14] | 1 (Compounds with IC50 < 10 µM or with a percentage of enzyme inhibition >50% at 10 µM were labelled as ACTIVE) | –
25 | O=c1[nH]cc(-c2cc(-c3cc(Cl)cc(OCCc4ccccc4)c3)c(=O)n(-c3cccnc3)c2)c(=O)[nH]1 [compound 15] | 1 (Compounds with IC50 < 10 µM or with a percentage of enzyme inhibition >50% at 10 µM were labelled as ACTIVE) | –
26 | Cc1ccccc1COc1cc(Cl)cc(-c2cc(-c3c[nH]c(=O)[nH]c3=O)cn(-c3cccnc3)c2=O)c1 [compound 16] | 1 (Compounds with IC50 < 10 µM or with a percentage of enzyme inhibition >50% at 10 µM were labelled as ACTIVE) | –
27 | Cc1cccc(COc2cc(Cl)cc(-c3cc(-c4c[nH]c(=O)[nH]c4=O)cn(-c4cccnc4)c3=O)c2)c1 [compound 17] | 1 (Compounds with IC50 < 10 µM or with a percentage of enzyme inhibition >50% at 10 µM were labelled as ACTIVE) | –
28 | O=c1[nH]cc(-c2cc(-c3cc(Cl)cc(OCc4ccccc4F)c3)c(=O)n(-c3cccnc3)c2)c(=O)[nH]1 [compound 18] | 1 (Compounds with IC50 < 10 µM or with a percentage of enzyme inhibition >50% at 10 µM were labelled as ACTIVE) | –
29 | O=c1[nH]cc(-c2cc(-c3cc(Cl)cc(OCc4cccc(F)c4)c3)c(=O)n(-c3cccnc3)c2)c(=O)[nH]1 [compound 19] | 1 (Compounds with IC50 < 10 µM or with a percentage of enzyme inhibition >50% at 10 µM were labelled as ACTIVE) | –
30 | O=c1[nH]cc(-c2cc(-c3cc(Cl)cc(OCc4c(F)cccc4F)c3)c(=O)n(-c3cccnc3)c2)c(=O)[nH]1 [compound 20] | 1 (Compounds with IC50 < 10 µM or with a percentage of enzyme inhibition >50% at 10 µM were labelled as ACTIVE) | –
31 | O=c1[nH]cc(-c2cc(-c3cc(Cl)cc(OCc4ccccc4Cl)c3)c(=O)n(-c3cccnc3)c2)c(=O)[nH]1 [compound 21] | 1 (Compounds with IC50 < 10 µM or with a percentage of enzyme inhibition >50% at 10 µM were labelled as ACTIVE) | –
32 | O=c1[nH]cc(-c2cc(-c3cc(Cl)cc(OCc4ccc(F)cc4Cl)c3)c(=O)n(-c3cccnc3)c2)c(=O)[nH]1 [compound 22] | 1 (Compounds with IC50 < 10 µM or with a percentage of enzyme inhibition >50% at 10 µM were labelled as ACTIVE) | –
33 | CC(C)C[C@H](NC(=O)[C@@H](NC(=O)c1cccc(-c2ccccc2)n1)[C@@H](C)O)B(O)O [delanzomib] | 0 (compounds with IC50 > 20 μM, percentage inhibition <80% at 20 µM or 50 μM, or percentage enzyme inhibition <50% at 10 µM were labelled as INACTIVE) | –
34 | Nc1ccn([C@H]2C[C@H](O)[C@@H](COP(=O)(O)OP(=O)(O)OP(=O)(O)OP(=O)(O)OC[C@H]3O[C@@H](n4ccc(=O)[nH]c4=O)[C@H](O)[C@@H]3O)O2)c(=O)n1 [denufosol (DB04983), denufosol] | 0 (compounds with IC50 > 20 μM, percentage inhibition <80% at 20 µM or 50 μM, or percentage enzyme inhibition <50% at 10 µM were labelled as INACTIVE) | –
35 | C=C(CC)C(=O)c1ccc(OCC(=O)O)c(Cl)c1Cl [ethacrynic acid] | 0 (compounds with IC50 > 20 μM, percentage inhibition <80% at 20 µM or 50 μM, or percentage enzyme inhibition <50% at 10 µM were labelled as INACTIVE) | –
36 | C[C@H]1C[C@@H]2[C@H]([C@@H](O)C[C@@]3(C)[C@H]2CC[C@]3(O)C(=O)CO)[C@@]2(C)C=CC(=O)C=C12 [methylprednisolone] | 0 (compounds with IC50 > 20 μM, percentage inhibition <80% at 20 µM or 50 μM, or percentage enzyme inhibition <50% at 10 µM were labelled as INACTIVE) | –
37 | Carmofur | 1 (Compounds with IC50 < 10 µM or with a percentage of enzyme inhibition >50% at 10 µM were labelled as ACTIVE) | –
38 | Disulfiram | 1 (Compounds with IC50 < 10 µM or with a percentage of enzyme inhibition >50% at 10 µM were labelled as ACTIVE) | –
39 | Forsythoside B | 1 (Compounds with IC50 < 10 µM or with a percentage of enzyme inhibition >50% at 10 µM were labelled as ACTIVE) | –
40 | MLN9708 | 0 (compounds with IC50 > 20 μM, percentage inhibition <80% at 20 µM or 50 μM, or percentage enzyme inhibition <50% at 10 µM were labelled as INACTIVE) | –
41 | Maraviroc | 0 (compounds with IC50 > 20 μM, percentage inhibition <80% at 20 µM or 50 μM, or percentage enzyme inhibition <50% at 10 µM were labelled as INACTIVE) | –
42 | Phillyrin | 0 (compounds with IC50 > 20 μM, percentage inhibition <80% at 20 µM or 50 μM, or percentage enzyme inhibition <50% at 10 µM were labelled as INACTIVE) | –
43 | TERIFLUNOMIDE | 0 (compounds with IC50 > 20 μM, percentage inhibition <80% at 20 µM or 50 μM, or percentage enzyme inhibition <50% at 10 µM were labelled as INACTIVE) | –
44 | cangrelor | 0 (compounds with IC50 > 20 μM, percentage inhibition <80% at 20 µM or 50 μM, or percentage enzyme inhibition <50% at 10 µM were labelled as INACTIVE) | –
